# System: Min6 cell
# Experiment: Insulin secretion response of beta cell line to formula I compounds (insulin ELISA)
# Format: cell-based
# Settings: rank according to % increase versus control at most effective dose
# Protocol: The secretory responses of beta cell lines to glucose were tested as described in Merglen et al. Endocrinology, (2004) 145(2):667-78.
# Briefly, after incubation with compounds from formula I or control vehicle, cells were maintained for 2 hours in glucose-free culture medium. The cells were then washed twice and preincubated for 30 minutes at 37° C. in glucose-free Krebs-Ringer bicarbonate HEPES buffer (KRBH: 135 mM NaCl, 3.6 mM KCl, 5 mM NaHCO3, 0.5 mM NaH2PO4, 0.5 mM MgCl2, 1.5 mM CaCl2, and 10 mM HEPES, pH 7.4). BSA (0.1%) was added as an insulin carrier. Cells were subsequently washed with glucose-free KRBH and then incubated for 30 minutes at 37° C. in KRBH containing different concentrations of glucose. The reaction was stopped by placing the plates on ice; supernatants were collected to determine insulin secretion and cells were used for intracellular insulin content following acid-ethanol extraction. Insulin was measured by ELISA (Linco) according to the manufacturer's instructions.
row,Compound,Insulin secretion (Min6 cell) Range 1 to 5
1,"5-[3-(allyloxy)-2-hydroxypropyl]-9-ethyl-6,7,9,10-tetrahydro[1,3]dioxolo[4,5-i][1,5]benzodiazocin-8(5H)-one [Compound 164]",1 (1: 90-110% of control)
2,"5-benzyl-1-(isoxazole-5-carbonyl)-2,3,5,6-tetrahydrobenzo[b][1,5]diazocin-4(1H)-one [Compound 157]",1 (1: 90-110% of control)
3,"9-ethyl-5-(2-hydroxy-3-phenylpropyl)-6,7,9,10-tetrahydro[1,3]dioxolo[4,5-i][1,5]benzodiazocin-8(5H)-one [Compound 165]",1 (1: 90-110% of control)
4,"COc1ccc2c(c1)CN(C1CC1)C(=O)CCN2 [Compound 1, 5-cyclopropyl-8-methoxy-2,3,5,6-tetrahydrobenzo[b][1,5]diazocin-4(1H)-one]",2 (2: 110-120% of control)
5,"COc1ccc2c(c1)CN(C1CC1)C(=O)CCN2CC(O)COc1ccccc1 (stereo not shown) [Compound 2, 5-cyclopropyl-1-(2-hydroxy-3-phenoxypropyl)-8-methoxy-2,3,5,6-tetrahydrobenzo[b][1,5]diazocin-4(1H)-one]",3 (3: 120-140% of control)
6,"COc1ccc2c(c1)CN(C1CC1)C(=O)CCN2CCc1ccc(Cl)cc1 [Compound 3, 1-(4-chlorophenethyl)-5-cyclopropyl-8-methoxy-2,3,5,6-tetrahydrobenzo[b][1,5]diazocin-4(1H)-one]",1 (1: 90-110% of control)
7,"COc1ccc2c(c1)CN(C1CC1)C(=O)CCN2C(=O)c1cc(C)on1 [Compound 4, 5-cyclopropyl-8-methoxy-1-(5-methylisoxazole-3-carbonyl)-2,3,5,6-tetrahydrobenzo[b][1,5]diazocin-4(1H)-one]",2 (2: 110-120% of control)
8,"COc1ccc2c(c1)CN(C1CC1)C(=O)CCN2CC(=O)c1ccc(F)cc1 [Compound 5, 5-cyclopropyl-1-(2-(4-fluorophenyl)-2-oxoethyl)-8-methoxy-2,3,5,6-tetrahydrobenzo[b][1,5]diazocin-4(1H)-one]",3 (3: 120-140% of control)
9,"COc1ccc2c(c1)CN(C1CC1)C(=O)CCN2CC(O)c1ccc(F)cc1 (stereo not shown) [Compound 6, 5-cyclopropyl-1-(2-(4-fluorophenyl)-2-hydroxyethyl)-8-methoxy-2,3,5,6-tetrahydrobenzo[b][1,5]diazocin-4(1H)-one]",3 (3: 120-140% of control)
10,"O=C1CCNc2ccc(Br)cc2CN1C1CC1 [Compound 7, 8-bromo-5-cyclopropyl-2,3,5,6-tetrahydrobenzo[b][1,5]diazocin-4(1H)-one]",1 (1: 90-110% of control)
11,"O=C1CCNc2ccc(F)cc2CN1C1CC1 [Compound 8, 5-cyclopropyl-8-fluoro-2,3,5,6-tetrahydrobenzo[b][1,5]diazocin-4(1H)-one]",3 (3: 120-140% of control)
12,"O=C1CCNc2ncccc2CN1C1CC1 [Compound 9, 5-cyclopropyl-2,3,5,6-tetrahydropyrido[2,3-b][1,5]diazocin-4(1H)-one]",2 (2: 110-120% of control)
13,"O=C1CCNc2ccc(F)cc2CN1 [Compound 10, 8-fluoro-2,3,5,6-tetrahydrobenzo[b][1,5]diazocin-4(1H)-one]",4 (4: 140-170% of control)
14,"COc1ccc2c(c1)CN(C1CC1)C(=O)CCN2CC(=O)c1ccccc1 [Compound 11, 5-cyclopropyl-8-methoxy-1-(2-oxo-2-phenylethyl)-2,3,5,6-tetrahydrobenzo[b][1,5]diazocin-4(1H)-one]",1 (1: 90-110% of control)
15,"COc1ccc2c(c1)CN(C1CC1)C(=O)CCN2CC(=O)c1cc(OC)ccc1OC [Compound 12, 5-cyclopropyl-1-(2-(2,5-dimethoxyphenyl)-2-oxoethyl)-8-methoxy-2,3,5,6-tetrahydrobenzo[b][1,5]diazocin-4(1H)-one]",1 (1: 90-110% of control)
16,"COc1ccc2c(c1)CN(C1CC1)C(=O)CCN2CC(=O)c1ccccc1OC [Compound 13, 5-cyclopropyl-8-methoxy-1-(2-(2-methoxyphenyl)-2-oxoethyl)-2,3,5,6-tetrahydrobenzo[b][1,5]diazocin-4(1H)-one]",1 (1: 90-110% of control)

row,Compound,Insulin secretion (Min6 cell) Range 1 to 5
1,"COc1ccc2c(c1)CN(C1CC1)C(=O)CCN2CC(=O)c1ccc(Cl)cc1 [Compound 14, 1-(2-(4-chlorophenyl)-2-oxoethyl)-5-cyclopropyl-8-methoxy-2,3,5,6-tetrahydrobenzo[b][1,5]diazocin-4(1H)-one]",3 (3: 120-140% of control)
2,"COc1ccc2c(c1)CN(C1CC1)C(=O)CCN2CC(=O)c1ccc2c(c1)OCCO2 [Compound 15, 5-cyclopropyl-1-(2-(2,3-dihydrobenzo[b][1,4]dioxin-6-yl)-2-oxoethyl)-8-methoxy-2,3,5,6-tetrahydrobenzo[b][1,5]diazocin-4(1H)-one]",3 (3: 120-140% of control)
3,"COc1ccc2c(c1)CN(C1CC1)C(=O)CCN2CC(=O)c1ccc(N2CCCC2)cc1 [Compound 16, 5-cyclopropyl-8-methoxy-1-(2-oxo-2-(4-(pyrrolidin-1-yl)phenyl)ethyl)-2,3,5,6-tetrahydrobenzo[b][1,5]diazocin-4(1H)-one]",4 (4: 140-170% of control)
4,"COc1ccc2c(c1)CN(C1CC1)C(=O)CCN2CC(O)c1ccccc1 (stereo not shown) [Compound 17, 5-cyclopropyl-1-(2-hydroxy-2-phenylethyl)-8-methoxy-2,3,5,6-tetrahydrobenzo[b][1,5]diazocin-4(1H)-one]",2 (2: 110-120% of control)
5,"COc1ccc2c(c1)CN(C1CC1)C(=O)CCN2C[C@@H](O)COCc1ccccc1 [Compound 18, (R)-1-(3-(benzyloxy)-2-hydroxypropyl)-5-cyclopropyl-8-methoxy-2,3,5,6-tetrahydrobenzo[b][1,5]diazocin-4(1H)-one]",2 (2: 110-120% of control)
6,"O=C1CCN(C[C@@H](O)COCc2ccccc2)c2ccc(F)cc2CN1C1CC1 [Compound 19, (R)-1-(3-(benzyloxy)-2-hydroxypropyl)-5-cyclopropyl-8-fluoro-2,3,5,6-tetrahydrobenzo[b][1,5]diazocin-4(1H)-one]",1 (1: 90-110% of control)
7,"COc1cccc(C(=O)CN2CCC(=O)N(C3CC3)Cc3cc(OC)ccc32)c1 [Compound 20, 5-cyclopropyl-8-methoxy-1-(2-(3-methoxyphenyl)-2-oxoethyl)-2,3,5,6-tetrahydrobenzo[b][1,5]diazocin-4(1H)-one]",1 (1: 90-110% of control)
8,"COc1ccc(C(=O)CN2CCC(=O)N(C3CC3)Cc3cc(OC)ccc32)cc1 [Compound 21, 5-cyclopropyl-8-methoxy-1-(2-(4-methoxyphenyl)-2-oxoethyl)-2,3,5,6-tetrahydrobenzo[b][1,5]diazocin-4(1H)-one]",2 (2: 110-120% of control)
9,"COc1ccc2c(c1)CN(C1CC1)C(=O)CCN2CC(=O)c1cccc(F)c1 [Compound 22, 5-cyclopropyl-1-(2-(3-fluorophenyl)-2-oxoethyl)-8-methoxy-2,3,5,6-tetrahydrobenzo[b][1,5]diazocin-4(1H)-one]",2 (2: 110-120% of control)
10,"COc1ccc2c(c1)CN(C1CC1)C(=O)CCN2CC(=O)c1ccc(OC(F)(F)F)cc1 [Compound 23, 5-cyclopropyl-8-methoxy-1-(2-oxo-2-(4-(trifluoromethoxy)phenyl)ethyl)-2,3,5,6-tetrahydrobenzo[b][1,5]diazocin-4(1H)-one]",1 (1: 90-110% of control)
11,"COc1ccc2c(c1)CN(C1CC1)C(=O)CCN2CC(=O)c1ccc(F)c(F)c1 [Compound 24, 5-cyclopropyl-1-(2-(3,4-difluorophenyl)-2-oxoethyl)-8-methoxy-2,3,5,6-tetrahydrobenzo[b][1,5]diazocin-4(1H)-one]",2 (2: 110-120% of control)
12,"COc1ccc2c(c1)CN(C1CC1)C(=O)CCN2CC(O)c1cc(OC)ccc1OC (stereo not shown) [Compound 25, 5-cyclopropyl-1-(2-(2,5-dimethoxyphenyl)-2-hydroxyethyl)-8-methoxy-2,3,5,6-tetrahydrobenzo[b][1,5]diazocin-4(1H)-one]",2 (2: 110-120% of control)
13,"COc1ccc2c(c1)CN(C1CC1)C(=O)CCN2CC(O)c1ccccc1OC (stereo not shown) [Compound 26, 5-cyclopropyl-1-(2-hydroxy-2-(2-methoxyphenyl)ethyl)-8-methoxy-2,3,5,6-tetrahydrobenzo[b][1,5]diazocin-4(1H)-one]",2 (2: 110-120% of control)
14,"COc1ccc2c(c1)CN(C1CC1)C(=O)CCN2CC(O)c1ccc(Cl)cc1 (stereo not shown) [Compound 27, 1-(2-(4-chlorophenyl)-2-hydroxyethyl)-5-cyclopropyl-8-methoxy-2,3,5,6-tetrahydrobenzo[b][1,5]diazocin-4(1H)-one]",4 (4: 140-170% of control)
15,"COc1ccc2c(c1)CN(C1CC1)C(=O)CCN2CC(O)c1ccc(N2CCCC2)cc1 (stereo not shown) [Compound 28, 5-cyclopropyl-1-(2-hydroxy-2-(4-(pyrrolidin-1-yl)phenyl)ethyl)-8-methoxy-2,3,5,6-tetrahydrobenzo[b][1,5]diazocin-4(1H)-one]",3 (3: 120-140% of control)

# — patent publication US8765728B2, “[1,5]-diazocin derivatives” (MelliTech, priority 2009, dated 2014)
